Source: BindingDB's records for doi:10.7270/Q2J67FB5 (Nmmlsc, 2007)
Each block holds one molecule with its values, some of them ahead of it.

Molecular target: T1, fMet-Leu-Phe receptor (Homo sapiens, UniProt P21462)
T1 sequence (P21462 whole entry): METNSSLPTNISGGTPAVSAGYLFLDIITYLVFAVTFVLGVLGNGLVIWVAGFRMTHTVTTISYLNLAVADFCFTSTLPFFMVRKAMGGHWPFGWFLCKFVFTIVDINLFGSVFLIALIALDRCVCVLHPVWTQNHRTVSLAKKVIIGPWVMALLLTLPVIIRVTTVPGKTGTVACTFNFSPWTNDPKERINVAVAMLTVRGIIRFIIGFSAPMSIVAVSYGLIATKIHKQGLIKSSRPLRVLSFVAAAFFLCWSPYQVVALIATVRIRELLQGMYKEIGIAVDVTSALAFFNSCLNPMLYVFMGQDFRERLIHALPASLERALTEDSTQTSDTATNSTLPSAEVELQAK
Test: FPR ligands, dose response (AID 519)

SMILES: COc1ccc(C2C(C(=O)c3ccco3)C(=O)C(=O)N2Cc2cccnc2)cc1OC (stereo not drawn) [2-(3,4-dimethoxyphenyl)-3-(furan-2-carbonyl)-4-hydroxy-1-(pyridin-3-ylmethyl)-2H-pyrrol-5-one]
IC50: > 66.7 µM

SMILES: C=CCOc1ccc(C2C(C(=O)c3cccs3)C(=O)C(=O)N2c2nnc(C)s2)cc1 (stereo not drawn) [1-(5-methyl-1,3,4-thiadiazol-2-yl)-4-oxidanyl-2-(4-prop-2-enoxyphenyl)-3-thiophen-2-ylcarbonyl-2H-pyrrol-5-one]
IC50: 40.5 µM

SMILES: COc1cc(C2C(C(=O)c3cccs3)C(=O)C(=O)N2Cc2ccco2)cc(OC)c1OC (stereo not drawn) [1-(2-furanylmethyl)-4-hydroxy-3-[oxo(thiophen-2-yl)methyl]-2-(3,4,5-trimethoxyphenyl)-2H-pyrrol-5-one]
IC50: 27 µM

SMILES: Cc1ccc(C2C(C(=O)c3sc(C)nc3C)C(=O)C(=O)N2CCN2CCOCC2)o1 (stereo not drawn) [3-(2,4-dimethyl-1,3-thiazole-5-carbonyl)-4-hydroxy-2-(5-methylfuran-2-yl)-1-(2-morpholin-4-ylethyl)-2H-pyrrol-5-one]
IC50: > 66.7 µM

SMILES: O=C1C(=O)N(c2ncccn2)C(c2ccc(Cl)cc2)C1C(=O)c1ccco1 (stereo not drawn) [2-(4-chlorophenyl)-3-(furan-2-carbonyl)-4-hydroxy-1-pyrimidin-2-yl-2H-pyrrol-5-one]
IC50: > 66.7 µM

SMILES: CCOc1ccc(C2C(C(=O)c3ccco3)C(=O)C(=O)N2Cc2cccnc2)cc1 (stereo not drawn) [2-(4-ethoxyphenyl)-3-(furan-2-carbonyl)-4-hydroxy-1-(pyridin-3-ylmethyl)-2H-pyrrol-5-one]
IC50: 15.3 µM

SMILES: COc1cccc(C2C(C(=O)c3cc4ccccc4o3)C(=O)C(=O)N2c2cc(C)on2)c1OC (stereo not drawn) [3-(1-benzofuran-2-carbonyl)-2-(2,3-dimethoxyphenyl)-4-hydroxy-1-(5-methyl-1,2-oxazol-3-yl)-2H-pyrrol-5-one]
IC50: > 66.7 µM

SMILES: COc1cc(C2C(C(=O)c3ccc(C)o3)C(=O)C(=O)N2CCc2ccccc2)ccc1O (stereo not drawn) [2-(3-methoxy-4-oxidanyl-phenyl)-3-(5-methylfuran-2-yl)carbonyl-4-oxidanyl-1-(2-phenylethyl)-2H-pyrrol-5-one]
IC50: 19.7 µM

SMILES: COC(=O)Cc1n[nH]c2c1C(C1C=CCCC1)C(C#N)C(=N)O2 (stereo not drawn) [2-[6-amino-5-cyano-4-(1-cyclohex-2-enyl)-2,4-dihydropyrano[2,3-c]pyrazol-3-yl]acetic acid methyl ester]
IC50: > 66.7 µM

SMILES: CCCOc1ccc(C2C(C(=O)c3ccc(C)o3)C(=O)C(=O)N2CCCn2ccnc2)cc1 (stereo not drawn) [1-(3-imidazol-1-ylpropyl)-3-(5-methylfuran-2-yl)carbonyl-4-oxidanyl-2-(4-propoxyphenyl)-2H-pyrrol-5-one]
IC50: 13.8 µM

SMILES: O=C1C(=O)N(c2ncccn2)C(c2cccc(Cl)c2)C1C(=O)c1ccco1 (stereo not drawn) [2-(3-chlorophenyl)-3-(furan-2-carbonyl)-4-hydroxy-1-pyrimidin-2-yl-2H-pyrrol-5-one]
IC50: > 66.7 µM

SMILES: CCOc1ccc(C2C(C(=O)c3ccco3)C(=O)C(=O)N2CCCn2ccnc2)cc1 (stereo not drawn) [2-(4-ethoxyphenyl)-3-(furan-2-carbonyl)-4-hydroxy-1-(3-imidazol-1-ylpropyl)-2H-pyrrol-5-one]
IC50: 9.9 µM

SMILES: O=C1C(=O)N(Cc2ccccc2)C(c2ccco2)C1C(=O)c1ccco1 (stereo not drawn) [1-Benzyl-4-(furan-2-carbonyl)-5-furan-2-yl-3-hydroxy-1,5-dihydro-pyrrol-2-one]
IC50: 12.4 µM

SMILES: COc1ccc(C2C(C(=O)c3cccs3)C(=O)C(=O)N2c2nnc(C)s2)cc1OC (stereo not drawn) [2-(3,4-dimethoxyphenyl)-1-(5-methyl-1,3,4-thiadiazol-2-yl)-4-oxidanyl-3-thiophen-2-ylcarbonyl-2H-pyrrol-5-one]
IC50: > 66.7 µM

SMILES: COCCCN1C(=O)C(=O)C(C(=O)c2ccco2)C1c1ccc(Br)cc1 (stereo not drawn) [2-(4-bromophenyl)-3-(furan-2-carbonyl)-4-hydroxy-1-(3-methoxypropyl)-2H-pyrrol-5-one]
IC50: 14.7 µM

SMILES: CCOc1cc(C2C(C(=O)c3ccco3)C(=O)C(=O)N2CCc2ccccc2)ccc1O (stereo not drawn) [2-(3-ethoxy-4-hydroxyphenyl)-3-(furan-2-carbonyl)-4-hydroxy-1-(2-phenylethyl)-2H-pyrrol-5-one]
IC50: > 66.7 µM

SMILES: Cc1cc(N2C(=O)C(=O)C(C(=O)c3ccco3)C2c2cccnc2)no1 (stereo not drawn) [3-(furan-2-carbonyl)-4-hydroxy-1-(5-methyl-1,2-oxazol-3-yl)-2-pyridin-3-yl-2H-pyrrol-5-one]
IC50: > 66.7 µM

SMILES: O=C1C(=O)N(CCc2ccccc2)C(c2cccnc2)C1C(=O)c1ccco1 (stereo not drawn) [3-(furan-2-carbonyl)-4-hydroxy-1-(2-phenylethyl)-2-pyridin-3-yl-2H-pyrrol-5-one]
IC50: > 66.7 µM

SMILES: COCCN1C(=O)C(=O)C(C(=O)c2ccco2)C1c1cccc(Oc2ccccc2)c1 (stereo not drawn) [3-(furan-2-carbonyl)-4-hydroxy-1-(2-methoxyethyl)-2-(3-phenoxyphenyl)-2H-pyrrol-5-one]
IC50: 56 µM

SMILES: COc1cc(C2C(C(=O)c3ccco3)C(=O)C(=O)N2CCc2ccccc2)ccc1O (stereo not drawn) [3-(furan-2-carbonyl)-4-hydroxy-2-(4-hydroxy-3-methoxyphenyl)-1-(2-phenylethyl)-2H-pyrrol-5-one]
IC50: > 66.7 µM

SMILES: O=C1C(=O)N(CCCN2CCOCC2)C(c2ccccn2)C1C(=O)c1cc2ccccc2o1 (stereo not drawn) [3-(1-benzofuran-2-carbonyl)-4-hydroxy-1-(3-morpholin-4-ylpropyl)-2-pyridin-2-yl-2H-pyrrol-5-one]
IC50: 60.7 µM

More lines, now with the values ahead:

IC50: 12.5 µM
SMILES: Cc1ccsc1C1C2C(=O)CC(C)(C)CC2=Nc2ncnn21 (stereo not drawn) [6,6-dimethyl-9-(3-methyl-2-thienyl)-1,5,7,9-tetrahydro-[1,2,4]triazolo[5,1-b]quinazolin-8-one]

IC50: > 66.7 µM
SMILES: COc1ccc(C(=O)C2C(=O)C(=O)N(Cc3ccco3)C2c2ccc(OC)cc2OC)cc1 (stereo not drawn) [(4E)-5-(2,4-dimethoxyphenyl)-1-(2-furanylmethyl)-4-[hydroxy-(4-methoxyphenyl)methylidene]pyrrolidine-2,3-dione]

IC50: > 66.7 µM
SMILES: CCN(CC)c1ccc(C=NC(C#N)C(=N)C#N)cc1 (stereo not drawn) [SMR000023871]

IC50: > 66.7 µM
SMILES: CSCCC1c2c(-c3cccs3)n[nH]c2OC(=N)C1C#N (stereo not drawn) [6-azanyl-4-(2-methylsulfanylethyl)-3-thiophen-2-yl-2,4-dihydropyrano[2,3-c]pyrazole-5-carbonitrile]

IC50: 32.5 µM
SMILES: COc1cc(-n2nc(C)c3c2OC(=N)C(C#N)C3c2ccccc2)c(Cl)c(Br)c1O (stereo not drawn) [6-amino-1-(3-bromo-2-chloro-4-hydroxy-5-methoxyphenyl)-3-methyl-4-phenyl-1,4-dihydropyrano[2,3-c]pyrazole-5-carbonitrile]

IC50: > 66.7 µM
SMILES: O=C1Nc2ccccc2/C1=C1/SC(=S)N(CC2CCCO2)C1=O (stereo not drawn) [(5Z)-5-(2-ketoindolin-3-ylidene)-3-(tetrahydrofurfuryl)-2-thioxo-thiazolidin-4-one]

IC50: > 66.7 µM
SMILES: C=CCN1C(=O)C2(c3ccccc31)C(C(=O)c1ccc3c(c1)OCCO3)C(=O)C(=O)N2CCCOC (stereo not drawn) [(4'E)-1-allyl-4'-[2,3-dihydro-1,4-benzodioxin-6-yl(hydroxy)methylene]-1'-(3-methoxypropyl)spiro[indoline-3,5'-pyrrolidine]-2,2',3'-trione]

IC50: 9.7 µM
SMILES: COC(=O)c1[nH]c(C)c(C(=O)C2C(=O)C(=O)N(CCCN3CCOCC3)C2c2ccccn2)c1C (stereo not drawn) [methyl 4-{[4-hydroxy-1-[3-(4-morpholinyl)propyl]-5-oxo-2-(2-pyridinyl)-2,5-dihydro-1H-pyrrol-3-yl]carbonyl}-3,5-dimethyl-1H-pyrrole-2-carboxylate]

IC50: > 66.7 µM
SMILES: CCOc1cccc(C(=O)C2C(=O)C(=O)N(Cc3ccco3)C2c2ccncc2)c1 (stereo not drawn) [(4Z)-1-(2-furfuryl)-4-[hydroxy(m-phenetyl)methylene]-5-(4-pyridyl)pyrrolidine-2,3-quinone]

IC50: > 66.7 µM
SMILES: Cc1ccc(C(=O)C2C(=O)C(=O)N(CCN3CCOCC3)C2c2cccnc2)cc1 (stereo not drawn) [(4Z)-4-[(4-methylphenyl)-oxidanyl-methylidene]-1-(2-morpholin-4-ylethyl)-5-pyridin-3-yl-pyrrolidine-2,3-dione]

IC50: > 66.7 µM
SMILES: Cc1ccc(C)c(C(=O)C2C(=O)C(=O)N(CCCn3ccnc3)C2c2ccncc2)c1 (stereo not drawn) [(4E)-4-[(2,5-dimethylphenyl)-hydroxy-methylene]-1-(3-imidazol-1-ylpropyl)-5-(4-pyridyl)pyrrolidine-2,3-quinone]

IC50: > 66.7 µM
SMILES: COc1cccc(C2C(C(=O)c3ccc(OC)c(OC)c3)C(=O)C(=O)N2c2cc(C)on2)c1 (stereo not drawn) [(4E)-4-[(3,4-dimethoxyphenyl)-hydroxy-methylene]-5-(3-methoxyphenyl)-1-(5-methylisoxazol-3-yl)pyrrolidine-2,3-quinone]

IC50: > 66.7 µM
SMILES: Cc1ccc(C2C(C(=O)c3ccc(Br)cc3)C(=O)C(=O)N2Cc2ccco2)o1 (stereo not drawn) [(4Z)-4-[(4-bromophenyl)-hydroxy-methylene]-1-(2-furfuryl)-5-(5-methyl-2-furyl)pyrrolidine-2,3-quinone]

IC50: 3.4 µM
SMILES: COc1ccc(OC)c(C2C(C(=O)c3ccccc3)C(=O)C(=O)N2Cc2ccco2)c1 (stereo not drawn) [(4Z)-5-(2,5-dimethoxyphenyl)-1-(2-furanylmethyl)-4-[hydroxy(phenyl)methylidene]pyrrolidine-2,3-dione]

IC50: > 66.7 µM
SMILES: COCCCN1C(=O)C(=O)C(C(=O)c2ccc3c(c2)CC(C)O3)C1c1cccnc1 (stereo not drawn) [(4E)-1-(3-methoxypropyl)-4-[(2-methyl-2,3-dihydro-1-benzofuran-5-yl)-oxidanyl-methylidene]-5-pyridin-3-yl-pyrrolidine-2,3-dione]

IC50: > 66.7 µM
SMILES: Cc1cc(N2C(=O)C(=O)C(C(=O)c3ccc(F)cc3)C2c2cccc(Br)c2)no1 (stereo not drawn) [(4E)-5-(3-bromophenyl)-4-[(4-fluorophenyl)-hydroxy-methylene]-1-(5-methylisoxazol-3-yl)pyrrolidine-2,3-quinone]

IC50: 11.6 µM
SMILES: Cc1ccc(C2C(C(=O)c3ccc(Cl)cc3)C(=O)C(=O)N2CC2CCCO2)o1 (stereo not drawn) [(4Z)-4-[(4-chlorophenyl)-hydroxy-methylene]-5-(5-methyl-2-furyl)-1-(tetrahydrofurfuryl)pyrrolidine-2,3-quinone]
